Assay results: US8759400B2, “Histone deacetylase inhibitors for enhancing activity of antifungal agents” (MethylGene Inc., priority 2005, dated 2014)
In brackets after ≈: the same amount, converted by molar mass. Several values for one entry are separate records, joined by “and”; a condition that tells them apart may be missing. Equal entries are not always repeated. Marks after values point to notes of the source that are not given here.

Columns and labels:
Paecilomyces lilacinus = assay: Clinical isolates of other fungal species, checkerboard; assay type: cell-based
C. parapsilosis = assay: Fungicidal activity (CFU counts); assay type: cell-based; settings: voriconazole with Compound 4, data not shown
Rhizopus arrhizus = assay: Clinical isolates of other fungal species, checkerboard; assay type: cell-based
Mucor Sp. = assay: as above; assay type: cell-based
C. glabrata (ATCC 90030) = assay: MIC80 and checkerboard synergy with antifungal agents; assay type: cell-based, Candida glabrata; settings: for Cpd 4 Conc for 4-fold synergy: C. glabrata (90030)
Aspergillus spp. = assay: Clinical isolates, checkerboard, summary over 16 isolates; assay type: cell-based
Fusarium sp. = assay: Clinical isolates of other fungal species, checkerboard; assay type: cell-based
Protocol: To determine the synergy between Compound 4 and azoles against other fungal species, a series of clinical isolates (Micheal Rinaldi, University of Texas Health Science Center) was tested by the checkerboard method as described in Example 1.

Coccidioides immitis = assay: microbe, parasite or virus in culture; assay type: cell-based
Aspergillus fumigatus = assay: Clinical isolates of other fungal species, checkerboard; assay type: cell-based
C. albicans [1] = assay: Immunocompromised mouse model of systemic candidiasis; assay type: in vivo; settings: compound 4 at 2-10 mg/kg i.p. daily with ketoconazole 20 mg/kg i.p. daily, 7 days; immunocompromised mice; FIG. 4
Protocol: The standard method for the mouse candidiasis studies is as follows. Female CD-1 mice are immunocompromised by injecting 240 mg/kg cyclophosphamide on day -3 then 80 mg/kg cyclophosphamide on days 1 and 5. C. albicans is grown in Sabouraud agar, cells are resuspended in 0.9% saline and counted in a hemacytometer. […] Mice are treated with ketoconazole +/− test compound daily for seven days, starting one day after the infection. They are monitored daily for weight loss and death. Mice are sacrificed on day 8 and the kidneys are removed and homogenized and fungal load (CFU) per pair of kidneys determined.

Trichosporon = assay: Clinical isolates of other fungal species, checkerboard; assay type: cell-based
Histoplasma = assay: microbe, parasite or virus in culture; assay type: cell-based
C. krusei = assay: Clinical isolates, CLSI M27-A2 broth microdilution and checkerboard; assay type: cell-based; settings: for minimum Compound 4 concentration at which Compound 4 alone inhibited growth (number in brackets): C. krusei clinical isolates
C. parapsilosis (22019) = assay: MIC and checkerboard synergy with azoles; assay type: cell-based, Candida parapsilosis
Protocol: For susceptibility studies, overnight cultures of both Candida species are diluted 1:100 in YEPD medium, grown for 4 h at 30° C., counted in a hemocytometer, then diluted to a concentration of 5×10^3 cells/ml. […] Synergy, determined by the checkerboard method, is defined as a decrease in MIC of antifungal agent that is more than additive of the MIC of the histone deacetylase inhibitor and the antifungal agent alone.

A. fumigatus = assay: Clinical isolates, CLSI M38-A broth microdilution and checkerboard; assay type: cell-based
C. tropicalis [2] = assay: Fungicidal activity (CFU counts); assay type: cell-based; settings: voriconazole with Compound 4, data not shown
HMEC = assay: Mammalian cytotoxicity, MTT reduction
A. fumigatus ATCC 1022 = assay: MIC80 and checkerboard synergy, broth microdilution (NCCLS M38-A); assay type: cell-based, Aspergillus fumigatus
C. dubliniensis = assay: Clinical isolates, CLSI M27-A2 broth microdilution and checkerboard; assay type: cell-based
Pseudallescheria boydii = assay: Clinical isolates of other fungal species, checkerboard; assay type: cell-based
Aspergillus terreus = assay: as above; assay type: cell-based
C. albicans [3] = assay: Clinical isolates, CLSI M27-A2 broth microdilution and checkerboard; assay type: cell-based; settings: Cpd 4 with voriconazole
C. lusitaniae = assay: as above; assay type: cell-based
Candida spp. = assay: Clinical isolates, checkerboard, summary over 45 isolates; assay type: cell-based; settings: for isolates with synergy / isolates tested: 45 clinical isolates of Candida spp.
C. tropicalis [4] = assay: Clinical isolates, CLSI M27-A2 broth microdilution and checkerboard; assay type: cell-based
[5] = Paecilomyces lilacinus, *Synergy occurs at ½ MIC of Cpd 4
[6] = Rhizopus arrhizus, *Synergy occurs at ½ MIC of Cpd 4
[7] = Aspergillus spp. clinical isolates
[8] = Trichosporon, **MIC of azole <0.06 μg/ml, too low to determine synergistic concentration
[9] = Cpd 4 with fluconazole, C. dubliniensis clinical isolates
[10] = Cpd 4 with voriconazole, C. dubliniensis clinical isolates

Compound: O=C(Cc1ccc(CCCCc2ccccc2)cc1)NO [Cpd 4]
- Synergy with Cpd 4 (strains showing synergy/total strains tested) Itraconazole (Paecilomyces lilacinus; [5]): 2/3*
- Synergy with Cpd 4 (strains showing synergy/total strains tested) Voriconazole (Paecilomyces lilacinus; [5]): 2/3*
- MIC (Paecilomyces lilacinus; Purpureocillium lilacinum, Paecilomyces lilacinus clinical isolates, read-out: Cpd 4 MIC): 4 µg/mL
- increase in voriconazole fungicidal activity (C. parapsilosis): 1.1-1.2 fold
- MIC (Rhizopus arrhizus; Rhizopus arrhizus clinical isolates, read-out: Cpd 4 MIC): > 8 µg/mL
- Synergy with Cpd 4 (strains showing synergy/total strains tested) Itraconazole (Rhizopus arrhizus; [6]): 2/3*
- Synergy with Cpd 4 (strains showing synergy/total strains tested) Voriconazole (Rhizopus arrhizus; [6]): 2/3*
- Synergy with Cpd 4 (strains showing synergy/total strains tested) Itraconazole (Mucor Sp.; Mucor Sp.): 1/3
- Synergy with Cpd 4 (strains showing synergy/total strains tested) Voriconazole (Mucor Sp.; Mucor Sp.): 0/3
- MIC (Mucor Sp.; Mucor Sp. clinical isolates, read-out: Cpd 4 MIC): 8 µg/mL
- Conc. Cpd 4 for 4-fold decrease (C. glabrata (ATCC 90030); 4-fold decrease of fenpropimorph MIC, C. glabrata): 0.78 µg/mL
- MIC (C. glabrata (ATCC 90030); Nakaseomyces glabratus, ATCC90030, compound alone, C. glabrata (ATCC 90030), read-out: MIC80): 6.25 µg/mL
- concentration at which Compound 4 synergizes with fenpropimorph (C. glabrata (ATCC 90030); against C. glabrata): 2 µg/mL
- Cpd 4 Conc for 4-fold synergy (C. glabrata (ATCC 90030); with itraconazole): 0.2 µg/mL
- Cpd 4 Conc for 4-fold synergy (C. glabrata (ATCC 90030); with ketoconazole): 0.25 µg/mL
- Cpd 4 Conc for 4-fold synergy (C. glabrata (ATCC 90030); with voriconazole): 0.39 µg/mL
- Compound 4 concentrations required for 4-fold reductions in azole MIC (Aspergillus spp.; [7]): 1 to 8 µg/mL
- in vitro antagonism of Compound 4-azole combination (Aspergillus spp.; [7]): none of the isolates tested
- number of isolates with additivity (Aspergillus spp.; Compound 4 with VOR and ITR, of 16 Aspergillus spp. isolates): 4
- number of isolates with synergy (Aspergillus spp.; Compound 4 with both VOR and ITR, of 16 Aspergillus spp. isolates): 11
- Synergy with Cpd 4 (strains showing synergy/total strains tested) Itraconazole (Fusarium sp.; Fusarium sp.): 1/3
- MIC (Fusarium sp.; Fusarium sp. clinical isolates, read-out: Cpd 4 MIC): 8 µg/mL
- Synergy with Cpd 4 (strains showing synergy/total strains tested) Voriconazole (Fusarium sp.; Fusarium sp., *Synergy occurs at ½ MIC of Cpd 4): 3/3*
- Synergy with Cpd 4 (strains showing synergy/total strains tested) Voriconazole (Coccidioides immitis): 0/3**
- Synergy with Cpd 4 (strains showing synergy/total strains tested) Itraconazole (Coccidioides immitis; Coccidioides immitis): 2/3
- MIC (Coccidioides immitis; Coccidioides immitis, read-out: Cpd 4 MIC): 0.25 µg/mL (≈ 0.882 µM)
- MIC (Aspergillus fumigatus; Aspergillus fumigatus clinical isolates, read-out: Cpd 4 MIC): 4 to 8 µg/mL
- Synergy with Cpd 4 (strains showing synergy/total strains tested) Itraconazole (Aspergillus fumigatus; Aspergillus fumigatus, *Synergy occurs at ½ MIC of Cpd 4): 2/3*
- Synergy with Cpd 4 (strains showing synergy/total strains tested) Voriconazole (Aspergillus fumigatus; Aspergillus fumigatus, †2-fold synergy obtained): 2/3^†
- effect on the activity of ketoconazole (fungal load, CFU per pair of kidneys) (C. albicans [1]): enhancing (i.e., synergistic) effect
- MIC (Trichosporon; Trichosporon clinical isolates, read-out: Cpd 4 MIC): 0.125 to 0.5 µg/mL
- Synergy with Cpd 4 (strains showing synergy/total strains tested) Itraconazole (Trichosporon; [8]): 1/3**
- Synergy with Cpd 4 (strains showing synergy/total strains tested) Voriconazole (Trichosporon; [8]): 0/3**
- Synergy with Cpd 4 (strains showing synergy/total strains tested) Itraconazole (Histoplasma): 0/3
- Synergy with Cpd 4 (strains showing synergy/total strains tested) Voriconazole (Histoplasma): 0/3
- MIC (Histoplasma; read-out: Cpd 4 MIC): 1 to 2 µg/mL (≈ 3.53 to 7.06 µM)
- FLU/Cpd 4 FIC interpretation (C. krusei; Cpd 4 with fluconazole, C. krusei clinical isolates and QC 6258): (S) (S = synergy)
- VOR/Cpd 4 FIC (C. krusei; Cpd 4 with voriconazole, C. krusei clinical isolates and QC 6258): 0.6 and 0.5 and 0.3
- minimum Compound 4 concentration at which Compound 4 alone inhibited growth (number in brackets) (C. krusei; FLU checkerboard): 0.5 µg/mL
- minimum Compound 4 concentration at which Compound 4 alone inhibited growth (number in brackets) (C. krusei; VOR checkerboard): 0.25 µg/mL and 0.5 µg/mL
- MIC (C. parapsilosis (22019); Lodderomyces parapsilosis, read-out: Cpd 4 MIC): 0.39 to 0.78 µg/mL
- Cpd 4 Conc for 4-fold synergy (C. parapsilosis (22019); with ketoconazole): 0.2 µg/mL
- Cpd 4 Conc for 4-fold synergy (C. parapsilosis (22019); with voriconazole): 0.049 µg/mL
- ITR/Cpd 4 FIC interpretation (A. fumigatus; Cpd 4 with itraconazole): (S) (S = synergy)
- VOR/Cpd 4 FIC interpretation (A. fumigatus; Cpd 4 with voriconazole): (S) (S = synergy)
- minimum Compound 4 concentration at which Compound 4 alone inhibited growth (number in brackets) (A. fumigatus; ITR checkerboard): 4.0 µg/mL
- increase in voriconazole fungicidal activity (C. tropicalis [2]): 1.1-1.2 fold
- MTT HMEC (HMEC): 13 µM
- MIC (A. fumigatus ATCC 1022; Aspergillus fumigatus, ATCC1022, A. fumigatus (1022), read-out: Cpd 4 MIC): 2 to 5 µg/mL
- Cpd 4 Conc for 4-fold synergy (A. fumigatus ATCC 1022; with itraconazole, A. fumigatus (1022)): 5 µg/mL
- Cpd 4 Conc for 4-fold synergy (A. fumigatus ATCC 1022; with ketoconazole, A. fumigatus (1022)): 2.5 µg/mL
- conc. for 4-fold synergy (A. fumigatus ATCC 1022; with ketoconazole, A. fumigatus ATCC 1022, 48 hours): 0.5 µg/mL
- Cpd 4 Conc for 4-fold synergy (A. fumigatus ATCC 1022; with voriconazole, A. fumigatus (1022)): 5 µg/mL
- FLU/Cpd 4 FIC (C. dubliniensis; [9]): 2.0
- FLU/Cpd 4 FIC interpretation (C. dubliniensis; [9]): (I) (I = indifference)
- VOR/Cpd 4 FIC (C. dubliniensis; [10]): 2.0
- VOR/Cpd 4 FIC interpretation (C. dubliniensis; [10]): (I) (I = indifference)
- minimum Compound 4 concentration at which Compound 4 alone inhibited growth (number in brackets) (C. dubliniensis; FLU checkerboard, C. dubliniensis clinical isolates): 0.03 µg/mL
- minimum Compound 4 concentration at which Compound 4 alone inhibited growth (number in brackets) (C. dubliniensis; VOR checkerboard, C. dubliniensis clinical isolates): 0.12 µg/mL
- activity of Compound 4 alone (C. dubliniensis; all 4 clinical isolates of C. dubliniensis): potent activity alone
- Synergy with Cpd 4 (strains showing synergy/total strains tested) Itraconazole (Pseudallescheria boydii; Pseudallescheria boydii): 0/3
- Synergy with Cpd 4 (strains showing synergy/total strains tested) Voriconazole (Pseudallescheria boydii; Pseudallescheria boydii): 0/3
- MIC (Pseudallescheria boydii; Scedosporium boydii, Pseudallescheria boydii clinical isolates, read-out: Cpd 4 MIC): 2 µg/mL
- Synergy with Cpd 4 (strains showing synergy/total strains tested) Itraconazole (Aspergillus terreus; Aspergillus terreus): 3/3
- Synergy with Cpd 4 (strains showing synergy/total strains tested) Voriconazole (Aspergillus terreus; Aspergillus terreus): 3/3
- MIC (Aspergillus terreus; Aspergillus terreus clinical isolates, read-out: Cpd 4 MIC): > 8 µg/mL
- VOR/Cpd 4 FIC interpretation (C. albicans [3]): (S) (S = synergy)
- FLU/Cpd 4 FIC (C. lusitaniae; Cpd 4 with fluconazole): <0.1
- FLU/Cpd 4 FIC interpretation (C. lusitaniae; Cpd 4 with fluconazole): (S) (S = synergy)
- VOR/Cpd 4 FIC interpretation (C. lusitaniae; Cpd 4 with voriconazole): (S) (S = synergy)
- minimum Compound 4 concentration at which Compound 4 alone inhibited growth (number in brackets) (C. lusitaniae; VOR checkerboard): 4 µg/mL
- in vitro antagonism of Compound 4-azole combination (Candida spp.; Candida spp. clinical isolates): none of the isolates tested
- isolates with synergy / isolates tested (Candida spp.; Compound 4 with FLU): 34/45
- isolates with synergy / isolates tested (Candida spp.; Compound 4 with VOR): 37/45
- Conc. Cpd 4 for 4-fold decrease (C. tropicalis [4]; 4-fold reduction of FLU MIC): 0.5 µg/mL
- VOR/Cpd 4 FIC interpretation (C. tropicalis [4]; Cpd 4 with voriconazole): (S) (S = synergy)
